The record followed here is PubChem BioAssay AID328 (DTP/NCI, 2004).

The assay concerns BDF1 mice, P388 leukemia ip, median survival T/C. As to the kind of experiment: NCI In Vivo Anticancer Drug Screen. Data for tumor model P388 Leukemia (intraperitoneal) in B6D2F1 (BDF1) mice. The conditions noted are these: endpoint: median survival time, higher = longer survival. The procedure, abridged:
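Mice carrying the transplantable tumour receive compound or vehicle. Survival is followed in each arm, and the treated measure is divided by the vehicle measure.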

[1] abbreviates: dose: 10.0 mg/kg/injection, schedule: Q04DX003 (ip), vehicle: saline with Tween-80.
Setting [2] is: dose: 50.0 mg/kg/injection, schedule: Q04DX003 (ip), vehicle: saline with Tween-80.
[3] abbreviates: dose: 100.0 mg/kg/injection, schedule: Q01DX009 (ip), vehicle: Klucel (hydroxypropylcellulose) (HPC).
[4] abbreviates: dose: 100.0 mg/kg/injection, schedule: Q04DX003 (ip), vehicle: saline with Tween-80.
[5] abbreviates: dose: 200.0 mg/kg/injection, schedule: Q01DX009 (ip), vehicle: Klucel (hydroxypropylcellulose) (HPC).
Setting [6] is: dose: 200.0 mg/kg/injection, schedule: Q04DX003 (ip), vehicle: saline with Tween-80.
Where [7] appears, read: dose: 50.0 mg/kg/injection, schedule: Q01DX009 (ip), vehicle: saline.
[8] abbreviates: dose: 50.0 mg/kg/injection, schedule: Q01DX009 (ip), vehicle: saline with Tween-80.
The mark [9] stands for this setting: dose: 100.0 mg/kg/injection, schedule: Q01DX009 (ip), vehicle: saline with Tween-80.
The mark [10] stands for this setting: dose: 200.0 mg/kg/injection, schedule: Q01DX009 (ip), vehicle: saline with Tween-80.
Where [11] appears, read: dose: 25.0 mg/kg/injection, schedule: Q01DX009 (ip), vehicle: saline with Tween-80.
The mark [12] stands for this setting: dose: 25.0 mg/kg/injection, schedule: Q04DX003 (ip), vehicle: saline with Tween-80.
Where [13] appears, read: dose: 6.25 mg/kg/injection, schedule: Q01DX009 (ip), vehicle: saline with Tween-80.

Values joined by “and” are separate entries in the source; they are usually repeats but may differ in a detail not shown here. Equal values may be shown once. Inconclusive results and toxic doses are left out.

As to `CC1CN=C(c2ccc(NC(=O)c3ccc(C(=O)Nc4ccc(C5=NCC(C)N5)cc4)c(N)c3)cc2)N1` (stereo not given), the T/C by setting is: (dose: 6.7 mg/kg/injection, schedule: Q04DX003 (ip), vehicle: saline with Tween-80) 150 % of control; under setting [1], 163 % of control; (dose: 15.0 mg/kg/injection, schedule: Q04DX003 (ip), vehicle: saline with Tween-80) 172 % of control and 177 % of control.

Regarding `CCOC(=O)C(=O)c1c[nH]c2ccccc12`, the T/C by setting is: under setting [2], 90 % of control; under setting [3], 109 % of control; under setting [4], 104 % of control; under setting [5], 90 % of control; under setting [6], 100 % of control; (dose: 400.0 mg/kg/injection, schedule: Q01DX009 (ip), vehicle: Klucel (hydroxypropylcellulose) (HPC)) 109 % of control.

`O=S(=O)(OC1=CCCCC1)C(F)(F)F`: the T/C is 104 % of control under setting [7]; 107 % of control (dose: 100.0 mg/kg/injection, schedule: Q01DX009 (ip), vehicle: saline); 109 % of control (dose: 200.0 mg/kg/injection, schedule: Q01DX009 (ip), vehicle: saline).

In the case of `N#Cc1ccc(/C=N/NC(N)=S)s1`, the T/C reads like this: under setting [8], 97 % of control; under setting [9], 102 % of control; under setting [10], 97 % of control.

With `O=C(NNC1CCN(Cc2ccccc2)CC1)c1ccccc1`, the T/C runs as follows: (dose: 1.1 mg/kg/injection, schedule: Q04DX003 (ip), vehicle: saline with Tween-80) 100 % of control; (dose: 1.65 mg/kg/injection, schedule: Q04DX003 (ip), vehicle: saline with Tween-80) 100 % of control; (dose: 2.5 mg/kg/injection, schedule: Q04DX003 (ip), vehicle: saline with Tween-80) 100 % of control; (dose: 3.75 mg/kg/injection, schedule: Q04DX003 (ip), vehicle: saline with Tween-80) 100 % of control; (dose: 5.0 mg/kg/injection, schedule: Q04DX003 (ip), vehicle: saline with Tween-80) 104 % of control; under setting [1], 104 % of control.

For the molecule `c1ccc2c(c1)C1CCC2c2ccccc21`, the T/C runs as follows: under setting [2], 100 % of control; under setting [4], 100 % of control; under setting [6], 88 % of control and 100 % of control; (dose: 400.0 mg/kg/injection, schedule: Q04DX003 (ip), vehicle: saline with Tween-80) 100 % of control.

For `CC1(C)N=C(N)N=C(N)N1c1ccc(OCCCNC(=O)Nc2cccc(S(=O)(=O)F)c2)c(Cl)c1`, the T/C is 177 % of control under setting [11]; 150 % of control under setting [12]; 200 % of control under setting [8]; 150 % of control under setting [2]; 177 % of control (dose: 66.0 mg/kg/injection, schedule: Q01DX009 (ip), vehicle: saline with Tween-80); 86 % of control and 213 % of control under setting [9].

`ClC(Cl)C(Cl)(Cl)C(Cl)(Cl)Cl`: the T/C is, setting by setting: (dose: 50.0 mg/kg/injection, schedule: Q01DX009 (ip), vehicle: Klucel (hydroxypropylcellulose) (HPC)) 91 % of control; (dose: 50.0 mg/kg/injection, schedule: Q04DX003 (ip), vehicle: Klucel (hydroxypropylcellulose) (HPC)) 104 % of control; under setting [3], 95 % of control; (dose: 100.0 mg/kg/injection, schedule: Q04DX003 (ip), vehicle: Klucel (hydroxypropylcellulose) (HPC)) 109 % of control; under setting [5], 100 % of control; (dose: 200.0 mg/kg/injection, schedule: Q04DX003 (ip), vehicle: Klucel (hydroxypropylcellulose) (HPC)) 109 % of control.

As to `N=C(N)c1ccc(-c2ccc(-c3ccc(C(=N)N)cc3)o2)cc1`, the T/C (dose: 3.13 mg/kg/injection, schedule: Q01DX009 (ip), vehicle: saline with Tween-80) is 111 % of control and the T/C under setting [13] is 119 % of control.

On to `COC(=O)C(I)C(OC)c1ccccc1` (stereo not given), for which the T/C is 100 % of control under setting [9]; 105 % of control under setting [10]; 110 % of control (dose: 400.0 mg/kg/injection, schedule: Q01DX009 (ip), vehicle: saline with Tween-80).

For `C=CC12COC(=O)C(=C)C1C1OC(=O)C(=C)C1C(O)C2` (stereo not given), the T/C by setting is: (dose: 1.0 mg/kg/injection, schedule: Q01DX009 (ip), vehicle: water) 118 % of control; (dose: 2.0 mg/kg/injection, schedule: Q01DX009 (ip), vehicle: water) 109 % of control; (dose: 4.6 mg/kg/injection, schedule: Q01DX010 (ip), vehicle: carboxymethylcellulose (CMC)) 115 % of control; (dose: 8.0 mg/kg/injection, schedule: Q01DX009 (ip), vehicle: water) 113 % of control; (dose: 10.0 mg/kg/injection, schedule: Q01DX009 (ip), vehicle: saline + alcohol) 122 % of control; (dose: 125.0 micrograms/kg/injection, schedule: Q01DX010 (ip), vehicle: carboxymethylcellulose (CMC)) 95 % of control. Also, the T/C reads like this: (dose: 250.0 micrograms/kg/injection, schedule: Q01DX010 (ip), vehicle: carboxymethylcellulose (CMC)) 95 % of control; (dose: 500.0 micrograms/kg/injection, schedule: Q01DX010 (ip), vehicle: carboxymethylcellulose (CMC)) 100 % of control; (dose: 1000.0 micrograms/kg/injection, schedule: Q01DX010 (ip), vehicle: carboxymethylcellulose (CMC)) 104 % of control; (dose: 2000.0 micrograms/kg/injection, schedule: Q01DX010 (ip), vehicle: carboxymethylcellulose (CMC)) 104 % of control; (dose: 4000.0 micrograms/kg/injection, schedule: Q01DX010 (ip), vehicle: carboxymethylcellulose (CMC)) 100 % of control.

For `O=C=Nc1ccc(CCc2ccc(N=C=O)cc2)cc1`, the T/C is 110 % of control under setting [8] and 120 % of control under setting [9].

In the case of `CC1(C#N)CCc2c(ccc3ccccc23)C1=O` (stereo not given), the T/C is, setting by setting: (dose: 50.0 mg/kg/injection, schedule: Q04DX003 (ip), vehicle: other) 91 % of control; (dose: 100.0 mg/kg/injection, schedule: Q04DX003 (ip), vehicle: other) 95 % of control; (dose: 200.0 mg/kg/injection, schedule: Q04DX003 (ip), vehicle: other) 100 % of control.

On to `Nc1ccccc1-c1ccc([N+](=O)[O-])cc1`, for which the T/C runs as follows: (dose: 100.0 mg/kg/injection, schedule: Q01DX001 (ip), vehicle: saline with Tween-80) 95 % of control; (dose: 200.0 mg/kg/injection, schedule: Q01DX001 (ip), vehicle: saline with Tween-80) 100 % of control; (dose: 400.0 mg/kg/injection, schedule: Q01DX001 (ip), vehicle: saline with Tween-80) 91 % of control.

On to `COc1cc2c(cc1OC)C(NC(C)=O)N(C)c1c-2ccc2cc3c(cc12)OCO3` (stereo not given), for which the T/C is, setting by setting: (dose: 40.0 mg/kg/injection, schedule: Q01DX009 (ip), vehicle: saline) 168 % of control; (dose: 80.0 mg/kg/injection, schedule: Q01DX009 (ip), vehicle: saline) 104 % of control; (dose: 120.0 mg/kg/injection, schedule: Q01DX009 (ip), vehicle: saline) 100 % of control.

On to `c1ccc(N2CCNCC2)cc1`, for which the T/C is 95 % of control (dose: 6.25 mg/kg/injection, schedule: Q04DX003 (ip), vehicle: saline sonified); 100 % of control (dose: 12.5 mg/kg/injection, schedule: Q04DX003 (ip), vehicle: saline sonified); 104 % of control (dose: 25.0 mg/kg/injection, schedule: Q04DX003 (ip), vehicle: saline sonified).

Consider `O=C(O)CN=Cc1ccccc1O.O=C(O)CN=Cc1ccccc1O.[Fe]`, for which the T/C by setting is: under setting [13], 100 % of control; (dose: 6.25 mg/kg/injection, schedule: Q01DX009 (ip), vehicle: saline) 106 % of control; (dose: 6.25 mg/kg/injection, schedule: Q04DX003 (ip), vehicle: saline) 100 % of control; (dose: 12.5 mg/kg/injection, schedule: Q01DX009 (ip), vehicle: saline with Tween-80) 100 % of control; (dose: 12.5 mg/kg/injection, schedule: Q01DX009 (ip), vehicle: saline) 115 % of control; (dose: 12.5 mg/kg/injection, schedule: Q04DX003 (ip), vehicle: saline) 100 % of control. In addition, the T/C under setting [11] was 100 % of control and 110 % of control; the T/C (dose: 25.0 mg/kg/injection, schedule: Q01DX009 (ip), vehicle: saline) was 90 % of control; the T/C under setting [12] is 100 % of control; the T/C (dose: 25.0 mg/kg/injection, schedule: Q04DX003 (ip), vehicle: saline) is 95 % of control; the T/C under setting [8] was 100 % of control; the T/C under setting [7] is 86 % of control. Also, the T/C under setting [2] is 86 % of control.
